14 compounds from PubChem BioAssay AID248 (DTP/NCI, 2004) can be followed below.

The subject of the assay is L1210 leukemia ip in BDF1 mice, survival T/C. Put plainly: NCI In Vivo Anticancer Drug Screen. Data for tumor model L1210 Leukemia (intraperitoneal) in B6D2F1 (BDF1) mice. The settings on record: endpoint: mean survival time, higher = longer survival. An outline of the steps:
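Tumor was transplanted into mice, which were then dosed with test compound or vehicle alone. Survival was recorded for each group, and the treated figure was expressed relative to the control figure.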

The mark [1] stands for this setting: dose: 50.0 mg/kg/injection, schedule: Q01DX009 (ip), vehicle: saline.
Where [2] appears, read: dose: 75.0 mg/kg/injection, schedule: Q01DX001 (ip), vehicle: saline.
Where [3] appears, read: dose: 150.0 mg/kg/injection, schedule: Q01DX001 (ip), vehicle: saline.
Where [4] appears, read: dose: 100.0 mg/kg/injection, schedule: Q04DX003 (ip), vehicle: saline.
Where [5] appears, read: dose: 200.0 mg/kg/injection, schedule: Q04DX003 (ip), vehicle: saline.
[6] abbreviates: dose: 400.0 mg/kg/injection, schedule: Q04DX003 (ip), vehicle: saline.
[7] abbreviates: dose: 5.0 mg/kg/injection, schedule: Q01DX001 (ip), vehicle: saline.
[8] abbreviates: dose: 10.0 mg/kg/injection, schedule: Q01DX001 (ip), vehicle: saline.
[9] abbreviates: dose: 20.0 mg/kg/injection, schedule: Q01DX001 (ip), vehicle: saline.
Setting [10] is: dose: 9.37 mg/kg/injection, schedule: Q01DX009 (ip), vehicle: saline.
[11] abbreviates: dose: 18.75 mg/kg/injection, schedule: Q01DX009 (ip), vehicle: saline.
Setting [12] is: dose: 37.5 mg/kg/injection, schedule: Q01DX009 (ip), vehicle: saline.
Setting [13] is: dose: 75.0 mg/kg/injection, schedule: Q01DX009 (ip), vehicle: saline.

Structures are written as SMILES. Values joined by “and” are separate entries in the source; they are usually repeats but may differ in a detail not shown here. Identical values can stand only once. Toxic doses and inconclusive results are not listed.

Turning to `C=C(C)C(=O)OCC(O)C[N+](C)(C)C` (stereo unspecified), the T/C reads like this: (dose: 25.0 mg/kg/injection, schedule: Q01DX009 (ip), vehicle: saline) 98 % of control; under setting [1], 101 % of control; under setting [2], 101 % of control; (dose: 100.0 mg/kg/injection, schedule: Q01DX009 (ip), vehicle: saline) 97 % of control; under setting [3], 98 % of control.

With `CSc1ncc(CO)c(Nc2ccc(F)cc2)n1`, the T/C under setting [4] is 93 % of control, the T/C under setting [5] is 100 % of control and the T/C under setting [6] is 98 % of control.

Turning to `COc1ccc(/C=C/C(=O)c2ccc3cc(OC)c(OC)cc3c2)cc1OC`, the T/C runs as follows: under setting [4], 91 % of control; under setting [5], 89 % of control; under setting [6], 87 % of control.

As for `O=C(O)/C(I)=C(\I)C(=O)O`, the T/C is, setting by setting: (dose: 100.0 mg/kg/injection, schedule: Q04DX002 (ip), vehicle: saline) 106 % of control; (dose: 200.0 mg/kg/injection, schedule: Q04DX002 (ip), vehicle: saline) 117 % of control.

Regarding `O=C(COc1ccccc1)NCCc1ccccc1`, the T/C (dose: 100.0 mg/kg/injection, schedule: Q04DX003 (ip), vehicle: gum acacia) was 97 % of control; the T/C (dose: 200.0 mg/kg/injection, schedule: Q04DX003 (ip), vehicle: gum acacia) is 108 % of control; the T/C (dose: 400.0 mg/kg/injection, schedule: Q04DX003 (ip), vehicle: gum acacia) is 95 % of control.

Consider `Nc1ncccc1[N+](=O)[O-]`, for which the T/C runs as follows: (dose: 100.0 mg/kg/injection, schedule: Q01DX009 (ip), vehicle: saline with Tween-80) 109 % of control; (dose: 200.0 mg/kg/injection, schedule: Q01DX009 (ip), vehicle: saline with Tween-80) 98 % of control; (dose: 400.0 mg/kg/injection, schedule: Q01DX009 (ip), vehicle: saline with Tween-80) 112 % of control.

In the case of `COC1C(O)C(C)OC(O[C@@H]2C[C@H]3CC[C@@H]4[C@H](CC[C@]5(C)[C@@H](C6=CC(=O)OC6)CC[C@]45O)[C@@]3(C)[C@H](O)C2)C1O` (stereo partly specified), the T/C is 103 % of control (dose: 0.63 mg/kg/injection, schedule: Q01DX001 (ip), vehicle: saline); 101 % of control (dose: 1.25 mg/kg/injection, schedule: Q01DX001 (ip), vehicle: saline); 97 % of control (dose: 2.5 mg/kg/injection, schedule: Q01DX001 (ip), vehicle: saline); 94 % of control under setting [7]; 103 % of control under setting [8]; 106 % of control under setting [9]. Further, the T/C by setting is: (dose: 40.0 mg/kg/injection, schedule: Q01DX001 (ip), vehicle: saline) 111 % of control; (dose: 80.0 mg/kg/injection, schedule: Q01DX001 (ip), vehicle: saline) 101 % of control.

With `NC(N)=NO`, the T/C under setting [10] was 107 % of control; the T/C under setting [11] was 107 % of control; the T/C under setting [12] is 109 % of control; the T/C under setting [13] is 111 % of control; the T/C (dose: 100.0 mg/kg/injection, schedule: Q01DX Z (ip), vehicle: saline) is 115 % of control; the T/C (dose: 144.0 mg/kg/injection, schedule: Q03HX024 (ip), vehicle: saline) is 123 % of control. Besides, the T/C runs as follows: (dose: 150.0 mg/kg/injection, schedule: Q01DX Z (ip), vehicle: other) 112 % of control; (dose: 217.0 mg/kg/injection, schedule: Q03HX024 (ip), vehicle: saline) 117 % of control; (dose: 300.0 mg/kg/injection, schedule: Q01DX Z (ip), vehicle: other) 121 % of control; (dose: 300.0 mg/kg/injection, schedule: Q01DX Z (ip), vehicle: saline) 122 % of control; (dose: 325.0 mg/kg/injection, schedule: Q03HX024 (ip), vehicle: saline) 122 % of control; under setting [6], 104 % of control. For the same compound, the T/C was 113 % of control (dose: 487.0 mg/kg/injection, schedule: Q03HX024 (ip), vehicle: saline) and 91 % of control (dose: 600.0 mg/kg/injection, schedule: Q04DX003 (ip), vehicle: saline).

Regarding `CC(C)(O)CCNc1ncnc2c1ncn2C1OC(CO)C(O)C1O` (stereo unspecified), the T/C by setting is: (dose: 25.0 mg/kg/injection, schedule: Q01DX005 (ip), vehicle: water) 97 % of control and 104 % of control; (dose: 50.0 mg/kg/injection, schedule: Q01DX005 (ip), vehicle: water) 103 % of control and 110 % of control; (dose: 100.0 mg/kg/injection, schedule: Q01DX005 (ip), vehicle: water) 106 % of control and 109 % of control.

With `C/C(=N/N(C)C)c1cccc(C(F)(F)F)c1`, the T/C is 98 % of control under setting [4] and 116 % of control under setting [5].

On to `O=S(=O)(O)SCCCNCCCNCCCSS(=O)(=O)O`, for which the T/C by setting is: under setting [10], 88 % of control; under setting [11], 87 % of control; under setting [12], 93 % of control; (dose: 37.5 mg/kg/injection, schedule: Q04DX003 (ip), vehicle: saline) 98 % of control; under setting [2], 102 % of control; (dose: 75.0 mg/kg/injection, schedule: Q04DX003 (ip), vehicle: saline) 93 % of control. The T/C under setting [3] is 96 % of control.

Take `NCCCCCCN=C(N)C(N)=NCCCCCCN`: the T/C (dose: 1.5 mg/kg/injection, schedule: Q01DX009 (ip), vehicle: Klucel (hydroxypropylcellulose) (HPC)) is 96 % of control; the T/C (dose: 3.0 mg/kg/injection, schedule: Q01DX009 (ip), vehicle: Klucel (hydroxypropylcellulose) (HPC)) was 112 % of control; the T/C (dose: 6.0 mg/kg/injection, schedule: Q01DX009 (ip), vehicle: Klucel (hydroxypropylcellulose) (HPC)) is 102 % of control; the T/C (dose: 12.5 mg/kg/injection, schedule: Q04DX003 (ip), vehicle: Klucel (hydroxypropylcellulose) (HPC)) is 93 % of control; the T/C (dose: 25.0 mg/kg/injection, schedule: Q04DX003 (ip), vehicle: Klucel (hydroxypropylcellulose) (HPC)) is 93 % of control.

On to `CCOc1ccc(C(=O)O)cc1OCC`, for which the T/C is 110 % of control (dose: 100.0 mg/kg/injection, schedule: Q04DX003 (ip), vehicle: saline with Tween-80); 98 % of control (dose: 200.0 mg/kg/injection, schedule: Q04DX003 (ip), vehicle: saline with Tween-80); 96 % of control (dose: 400.0 mg/kg/injection, schedule: Q04DX003 (ip), vehicle: saline with Tween-80).

Regarding `CC(=O)NC1=C(N2CC2C)C(=O)C(NC(C)=O)=C(N2CC2C)C1=O` (stereo unspecified), the T/C is 109 % of control (dose: 0.25 mg/kg/injection, schedule: Q01DX009 (ip), vehicle: saline); 103 % of control (dose: 0.31 mg/kg/injection, schedule: Q01DX Z (ip), vehicle: saline); 103 % of control (dose: 0.5 mg/kg/injection, schedule: Q01DX009 (ip), vehicle: saline); 103 % of control (dose: 0.63 mg/kg/injection, schedule: Q01DX Z (ip), vehicle: saline); 114 % of control (dose: 1.0 mg/kg/injection, schedule: Q01DX009 (ip), vehicle: saline); 106 % of control (dose: 1.25 mg/kg/injection, schedule: Q01DX Z (ip), vehicle: saline). Also, the T/C is 120 % of control (dose: 2.0 mg/kg/injection, schedule: Q01DX009 (ip), vehicle: saline); 184 % of control (dose: 2.5 mg/kg/injection, schedule: Q01DX009 (ip), vehicle: saline); 118 % of control under setting [7]; 108 % of control (dose: 5.0 mg/kg/injection, schedule: Q01DX009 (ip), vehicle: saline); 171 % of control under setting [8]; 96 % of control and 111 % of control (dose: 10.0 mg/kg/injection, schedule: Q01DX Z (ip), vehicle: saline). The T/C under setting [9] was 118 % of control; the T/C (dose: 20.0 mg/kg/injection, schedule: Q01DX009 (ip), vehicle: saline) was 111 % of control; the T/C (dose: 20.0 mg/kg/injection, schedule: Q01DX Z (ip), vehicle: saline) is 103 % of control; the T/C (dose: 40.0 mg/kg/injection, schedule: Q01DX Z (ip), vehicle: saline) was 178 % of control; the T/C under setting [1] was 100 % of control; the T/C under setting [2] is 186 % of control. For the same compound, the T/C is 92 % of control under setting [13] and 112 % of control under setting [3].
